Measurements reported in article PMC4823954, “From fighting depression to conquering tumors: a novel tricyclic thiazepine compound as a tubulin polymerization inhibitor” (Cell Death & Disease, 2016).
Like-named read-outs stand apart in the source and are kept apart here.

Key:
[1] = Caco-2 cell bi-directional transport assay; assay type: in vitro ADME; settings: human; for Papp: Caco-2
Excerpt: (§1) As in vivo investigations are generally time consuming and expensive, it is advantageous to eliminate those compounds that are not suitable for animal experiments. One of the necessary steps is to screen the initial hits using assays testing their possible behaviors in vivo. To evaluate the drug-like properties of TBPT, a panel of in vitro assays was preformed (Table 1). The parallel artificial membrane permeability assay (PAMPA) was used to evaluate the cell permeability of the compounds. Compounds with a Pe >[…] are classified as highly permeable. […] The Caco-2 assay was used to predict the oral absorption values of the compounds in vivo. Compounds with a Caco-2 efflux ratio >2 may be subject to active efflux and should not be developed further. […] The half-life (T1/2) in human liver microsomes is used to predict the metabolism properties of compounds in vivo. […] A very long T1/2 (>24 h) increases the risk of cumulative toxicity and is not desirable. […] T1/2 in plasma indicates the stability of the drug in human blood; the high T1/2 values of these compounds indicated better stability in vivo. Plasma protein binding influences the distribution of drugs into body tissues, and compounds with high plasma protein binding (>99%) are limited in terms of the amount of free compound that are available to act on the targeted tissue.
(§2) The PAMPA and Caco-2 cell bi-directional transport assay of the derivatives were conducted as described in our previous report.[65], [66] The human liver microsome, plasma stability and plasma protein-binding assays were conducted following modified protocols reported by Cyprotex (Macclesfield, UK).[67], [68], [69], [70]

Caco-2 = Caco-2 cell bi-directional transport assay; assay type: in vitro ADME; settings: Caco-2
Excerpt: as §1, §2

plasma stability = assay type: in vitro ADME; settings: human, read-out: T1/2 in human plasma
Excerpt: as §1, with “tissue. […]” for “tissue.”

tubulin = biological target: T1, tubulin (Sus scrofa, UniProt P02550+P02554); assay: Tubulin polymerization assay (cell-free); assay type: biochemical; settings: fluorescence, 50 min, 37 °C, read-out: IC50 of tubulin polymerization (microtubule formation)
T1 construct: purchased Cytoskeleton, Denver, CO, USA
Description: A fluorescence-based tubulin polymerization assay kit was used to monitor the polymerization process according to the manufacturer's instructions (Cytoskeleton, Denver, CO, USA). […] Tubulin solution (50 μl) was dispensed rapidly into each well.

H460 [2] = assay: Apoptosis flow cytometry (PI/Annexin V-FITC); assay type: cell-based, human; settings: NSCLC cells (H460), 2 μM, 48 h
caspases 8, 9 and 3/7 = assay: Caspases activity assay in H460 cells; assay type: cell-based, human; settings: H460, 2 μM, 6, 12 and 24 h
Description: The activities of caspases 8, 9, and 3/7 in H460TaxR and H460 cells were examined via a fluorescence-based assay using Caspase-Glo 8, Caspase-Glo 9 Assay kits and Apo-ONE Homogeneous Caspase-3/7 Assay Kit (Promega, Madison, WI, USA). Cells (1 × 10^6 cells in 10 ml medium) were seeded in 10-cm dishes. After 24 h, the cells were treated with TBPT (2 μM) or DMSO for 6, 12 and 24 h. Then, the cells were washed in PBS and collected. Cell lysates were prepared conventionally in RIPA lysis buffer. Protein concentrations were determined using the BCA protein assay. Equal amounts (10 μg) of total protein of samples were added to 96-well culture plates containing 100 μl caspases 8, 9 and 3/7 activity working solution. After the samples were incubated for 1 h at RT, the fluorescence of each well was determined at 499 nm with an emission wavelength of 521 nm using a multimode plate reader (Victor X2, Perkin Elmer, Boston, MA, USA). The fluorescence intensities are proportional to the activities of caspases 8, 9 and 3/7.

H460TaxR = assay: Mitochondrial membrane potential (JC-1); assay type: cell-based, human; settings: 2 μM, 12 h
Description: (§3) The mitochondrial membrane potential was determined using JC-1 dye (Beyotime, Beijing, China). NSCLC cells (4 × 10^4 cells in 0.5 ml) were seeded in 24-well culture plates. […] Carbonyl cyanide m-chlorophenylhydrazone (CCCP; 10 μM), a mitochondrial membrane disrupter, was used to treat cells for 20 min as a positive control. Then, the cells were incubated with 200 μl JC-1 working solution at 37 °C for 20 min. After the cells were washed in RPMI-1640 medium, they were observed and imaged using a fluorescence microscope (Olympus IX71).

H460 [3] = assay: Mitochondrial membrane potential (JC-1); assay type: cell-based, human; settings: H460, 2 μM, 12 h
Description: as §3

[4] = biological target: T2, ABL1(F317I)-nonphosphorylated (Homo sapiens, UniProt P00519, F317I); assay: KINOMEscan; assay type: binding; settings: read-out: % Ctrl
T2 construct: purchased DiscoveRx KINOMEscan

EGFR(G719C) = biological target: T3, EGFR(G719C) (Homo sapiens, UniProt P00533, G719C); assay: KINOMEscan; assay type: binding; settings: read-out: % Ctrl
T3 construct: purchased DiscoveRx KINOMEscan

EGFR(L858R) = biological target: T4, EGFR(L858R) (Homo sapiens, UniProt P00533, L858R); assay: KINOMEscan; assay type: binding; settings: read-out: % Ctrl
T4 construct: purchased DiscoveRx KINOMEscan

EGFR(L861Q) = biological target: T5, EGFR(L861Q) (Homo sapiens, UniProt P00533, L861Q); assay: KINOMEscan; assay type: binding; settings: read-out: % Ctrl
T5 construct: purchased DiscoveRx KINOMEscan

EGFR(T790M) = biological target: T6, EGFR(T790M) (Homo sapiens, UniProt P00533, T790M); assay: KINOMEscan; assay type: binding; settings: read-out: % Ctrl
T6 construct: purchased DiscoveRx KINOMEscan

FGFR3(G697C) = biological target: T7, FGFR3(G697C) (Homo sapiens, UniProt P22607, G697C); assay: KINOMEscan; assay type: binding; settings: read-out: % Ctrl
T7 construct: purchased DiscoveRx KINOMEscan

FLT3(D835H) = biological target: T8, FLT3(D835H) (Homo sapiens, UniProt P36888, D835H); assay: KINOMEscan; assay type: binding; settings: read-out: % Ctrl
T8 construct: purchased DiscoveRx KINOMEscan

KIT(V559D,V654A) = biological target: T9, KIT(V559D,V654A) (Homo sapiens, UniProt P10721, V559D/V654A); assay: KINOMEscan; assay type: binding; settings: read-out: % Ctrl
T9 construct: purchased DiscoveRx KINOMEscan

LRRK2(G2019S) = biological target: T10, LRRK2(G2019S) (Homo sapiens, UniProt Q5S007, G2019S); assay: KINOMEscan; assay type: binding; settings: read-out: % Ctrl
T10 construct: purchased DiscoveRx KINOMEscan

MET(M1250T) = biological target: T11, MET(M1250T) (Homo sapiens, UniProt P08581, M1250T); assay: KINOMEscan; assay type: binding; settings: read-out: % Ctrl
T11 construct: purchased DiscoveRx KINOMEscan

[5] = toxicity in xenografted mice; settings: TBPT 30 or 60 mg/kg x5, PTX 10 mg/kg x4, i.v.
Description: Five injections of vehicle and TBPT (30 or 60 mg/kg) were administered intravenously at days 1, 3, 5, 7 and 9 (arrows). Four injections of PTX (10 mg/kg) were administered intravenously at days 1, 3, 5 and 7. (a) The tumor volume was measured every other day. When the tumor volume in the solvent-treated group exceeded 1500 mm^3, the experiment was terminated. (b) Blood biochemical and hematological analyses. (c) The body weights of the mice were monitored every other day during the experiments. *P<0.05, Student's t-test with day 0, N=5
Figure 3 Histopathological examination of the major organs from TBPT or PTX-treated mouse tumor at the end of the experiments. The cross-sections of organs were stained with hematoxylin–eosin. […] The scale bars represent 50 μm and are uniform in each column
H460 and H460TaxR cells (5 × 10^6 cells in 100 μl PBS) were injected subcutaneously into the dorsal flank of each mouse. When the tumors reached volumes of 100 mm^3, the mice were divided randomly into four groups. The mice were treated every other day five times with intravenous injections of (1) vehicle (the solvent of TBPT: 60% PBS, 8% Cremophor EL, 8% EtOH, 12% poly propylene glycol and 12% PEG-400), (2) TBPT (30 mg/kg) or (3) TBPT (60 mg/kg). Another group was treated with PTX (10 mg/kg) every other day four times as the positive control. The tumor dimensions and body weights were measured every other day. The tumor volume was calculated according to a standard formula: volume=width^2 × length/2. The experiment was terminated and the mice were killed when the tumor volumes in the solvent-treated group exceeded 1500 mm^3. The mouse organs and blood were collected and used for hematoxylin–eosin staining and serum chemistry assay. TGI rates were assessed using the following formula: TGI=1− (Tt−T0)/(Ct−C0) × 100%. Tt and T0 indicate the tumor volumes of the treated group at days t and 0. Ct and C0 indicate the tumor volumes of the control group at days t and 0, respectively.

T11 sequence (P08581 25-1390 M1250T): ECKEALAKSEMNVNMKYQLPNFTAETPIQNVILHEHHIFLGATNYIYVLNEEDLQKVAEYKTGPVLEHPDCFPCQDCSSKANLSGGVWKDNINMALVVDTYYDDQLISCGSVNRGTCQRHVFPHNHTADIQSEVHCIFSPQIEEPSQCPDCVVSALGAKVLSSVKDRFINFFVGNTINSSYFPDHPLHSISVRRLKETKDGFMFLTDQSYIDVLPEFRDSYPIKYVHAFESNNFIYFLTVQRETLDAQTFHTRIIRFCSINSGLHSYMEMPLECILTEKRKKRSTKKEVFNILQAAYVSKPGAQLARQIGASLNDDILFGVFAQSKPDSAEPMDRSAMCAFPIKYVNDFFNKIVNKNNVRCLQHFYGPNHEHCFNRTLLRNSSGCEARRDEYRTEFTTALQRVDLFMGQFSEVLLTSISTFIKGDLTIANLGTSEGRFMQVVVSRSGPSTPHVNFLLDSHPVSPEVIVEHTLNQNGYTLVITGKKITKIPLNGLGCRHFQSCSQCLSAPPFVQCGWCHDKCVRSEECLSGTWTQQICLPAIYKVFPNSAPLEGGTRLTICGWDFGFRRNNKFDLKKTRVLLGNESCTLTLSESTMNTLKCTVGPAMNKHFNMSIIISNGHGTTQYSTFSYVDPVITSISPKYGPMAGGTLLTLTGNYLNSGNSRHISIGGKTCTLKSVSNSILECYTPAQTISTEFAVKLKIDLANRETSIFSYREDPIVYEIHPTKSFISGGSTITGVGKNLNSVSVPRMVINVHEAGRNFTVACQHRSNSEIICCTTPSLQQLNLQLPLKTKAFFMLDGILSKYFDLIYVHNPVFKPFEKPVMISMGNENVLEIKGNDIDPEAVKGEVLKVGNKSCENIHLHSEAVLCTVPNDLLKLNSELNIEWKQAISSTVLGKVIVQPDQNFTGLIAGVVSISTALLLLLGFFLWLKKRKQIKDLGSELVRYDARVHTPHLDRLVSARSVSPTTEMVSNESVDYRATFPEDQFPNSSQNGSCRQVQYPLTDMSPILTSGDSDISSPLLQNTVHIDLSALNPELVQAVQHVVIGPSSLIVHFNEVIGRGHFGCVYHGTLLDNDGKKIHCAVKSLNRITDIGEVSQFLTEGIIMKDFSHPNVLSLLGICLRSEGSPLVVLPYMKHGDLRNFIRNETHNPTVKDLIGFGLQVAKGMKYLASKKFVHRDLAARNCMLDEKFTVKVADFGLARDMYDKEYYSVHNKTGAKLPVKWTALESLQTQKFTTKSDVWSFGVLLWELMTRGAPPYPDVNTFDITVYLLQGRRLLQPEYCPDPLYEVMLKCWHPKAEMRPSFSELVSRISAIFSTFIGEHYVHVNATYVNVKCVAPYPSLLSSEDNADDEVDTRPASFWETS
T2 sequence (P00519 whole entry F317I): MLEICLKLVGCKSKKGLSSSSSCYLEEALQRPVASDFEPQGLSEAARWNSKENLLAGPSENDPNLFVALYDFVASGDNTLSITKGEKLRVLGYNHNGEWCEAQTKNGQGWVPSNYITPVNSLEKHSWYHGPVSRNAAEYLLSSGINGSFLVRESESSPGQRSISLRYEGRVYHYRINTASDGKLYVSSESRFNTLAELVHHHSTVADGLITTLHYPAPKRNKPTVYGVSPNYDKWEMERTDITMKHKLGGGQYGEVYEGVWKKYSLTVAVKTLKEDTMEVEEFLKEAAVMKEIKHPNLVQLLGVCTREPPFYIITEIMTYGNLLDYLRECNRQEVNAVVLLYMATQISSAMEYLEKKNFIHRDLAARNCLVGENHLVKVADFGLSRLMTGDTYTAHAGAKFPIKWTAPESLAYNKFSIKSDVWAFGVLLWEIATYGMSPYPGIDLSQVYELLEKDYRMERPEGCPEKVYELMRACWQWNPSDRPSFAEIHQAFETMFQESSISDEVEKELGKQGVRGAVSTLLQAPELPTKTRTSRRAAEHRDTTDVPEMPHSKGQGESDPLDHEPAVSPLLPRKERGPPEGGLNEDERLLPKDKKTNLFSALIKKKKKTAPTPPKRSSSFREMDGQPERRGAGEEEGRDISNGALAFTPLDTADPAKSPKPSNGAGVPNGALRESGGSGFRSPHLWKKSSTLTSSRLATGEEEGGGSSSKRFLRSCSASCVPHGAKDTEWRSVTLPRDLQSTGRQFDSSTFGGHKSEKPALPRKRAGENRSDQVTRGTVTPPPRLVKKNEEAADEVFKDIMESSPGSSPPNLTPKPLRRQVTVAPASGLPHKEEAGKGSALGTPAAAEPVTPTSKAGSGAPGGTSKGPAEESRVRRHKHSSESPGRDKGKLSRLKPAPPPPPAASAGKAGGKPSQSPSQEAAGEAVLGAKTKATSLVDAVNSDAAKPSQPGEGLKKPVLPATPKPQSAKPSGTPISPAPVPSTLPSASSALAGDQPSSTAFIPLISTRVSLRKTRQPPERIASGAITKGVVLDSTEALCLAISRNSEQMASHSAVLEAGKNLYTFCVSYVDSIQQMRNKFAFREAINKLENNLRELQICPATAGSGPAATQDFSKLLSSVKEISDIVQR
T6 sequence (P00533 25-1210 T790M): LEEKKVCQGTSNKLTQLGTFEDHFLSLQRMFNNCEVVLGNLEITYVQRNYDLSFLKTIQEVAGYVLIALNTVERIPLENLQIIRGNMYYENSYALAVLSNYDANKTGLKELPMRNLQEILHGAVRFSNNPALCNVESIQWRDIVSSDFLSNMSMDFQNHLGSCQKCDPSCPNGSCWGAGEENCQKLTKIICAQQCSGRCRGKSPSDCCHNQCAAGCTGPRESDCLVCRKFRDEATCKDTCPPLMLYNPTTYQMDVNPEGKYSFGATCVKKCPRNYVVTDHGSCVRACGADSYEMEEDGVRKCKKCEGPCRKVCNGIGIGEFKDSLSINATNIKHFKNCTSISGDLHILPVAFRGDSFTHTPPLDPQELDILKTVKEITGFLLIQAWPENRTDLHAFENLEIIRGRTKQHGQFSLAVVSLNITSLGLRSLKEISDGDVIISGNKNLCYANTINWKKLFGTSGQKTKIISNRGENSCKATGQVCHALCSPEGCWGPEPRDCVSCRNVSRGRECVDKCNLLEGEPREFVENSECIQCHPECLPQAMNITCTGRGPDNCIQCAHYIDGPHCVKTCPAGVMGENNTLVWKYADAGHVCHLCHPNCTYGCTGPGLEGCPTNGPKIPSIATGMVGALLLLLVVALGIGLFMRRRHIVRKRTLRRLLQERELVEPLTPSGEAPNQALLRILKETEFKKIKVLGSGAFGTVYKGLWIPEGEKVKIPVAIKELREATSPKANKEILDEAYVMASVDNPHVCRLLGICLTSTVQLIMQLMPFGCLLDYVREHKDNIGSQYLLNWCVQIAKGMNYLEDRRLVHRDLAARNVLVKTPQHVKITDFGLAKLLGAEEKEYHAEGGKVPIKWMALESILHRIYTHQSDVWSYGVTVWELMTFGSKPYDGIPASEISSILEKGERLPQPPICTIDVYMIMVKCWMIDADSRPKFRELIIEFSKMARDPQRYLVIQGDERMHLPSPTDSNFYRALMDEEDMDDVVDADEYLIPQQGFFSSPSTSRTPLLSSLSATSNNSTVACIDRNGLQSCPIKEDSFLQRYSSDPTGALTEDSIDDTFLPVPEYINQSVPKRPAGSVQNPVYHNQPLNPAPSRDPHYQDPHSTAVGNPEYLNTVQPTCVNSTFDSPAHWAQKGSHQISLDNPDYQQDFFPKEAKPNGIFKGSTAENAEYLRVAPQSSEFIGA
T5 sequence (P00533 25-1210 L861Q): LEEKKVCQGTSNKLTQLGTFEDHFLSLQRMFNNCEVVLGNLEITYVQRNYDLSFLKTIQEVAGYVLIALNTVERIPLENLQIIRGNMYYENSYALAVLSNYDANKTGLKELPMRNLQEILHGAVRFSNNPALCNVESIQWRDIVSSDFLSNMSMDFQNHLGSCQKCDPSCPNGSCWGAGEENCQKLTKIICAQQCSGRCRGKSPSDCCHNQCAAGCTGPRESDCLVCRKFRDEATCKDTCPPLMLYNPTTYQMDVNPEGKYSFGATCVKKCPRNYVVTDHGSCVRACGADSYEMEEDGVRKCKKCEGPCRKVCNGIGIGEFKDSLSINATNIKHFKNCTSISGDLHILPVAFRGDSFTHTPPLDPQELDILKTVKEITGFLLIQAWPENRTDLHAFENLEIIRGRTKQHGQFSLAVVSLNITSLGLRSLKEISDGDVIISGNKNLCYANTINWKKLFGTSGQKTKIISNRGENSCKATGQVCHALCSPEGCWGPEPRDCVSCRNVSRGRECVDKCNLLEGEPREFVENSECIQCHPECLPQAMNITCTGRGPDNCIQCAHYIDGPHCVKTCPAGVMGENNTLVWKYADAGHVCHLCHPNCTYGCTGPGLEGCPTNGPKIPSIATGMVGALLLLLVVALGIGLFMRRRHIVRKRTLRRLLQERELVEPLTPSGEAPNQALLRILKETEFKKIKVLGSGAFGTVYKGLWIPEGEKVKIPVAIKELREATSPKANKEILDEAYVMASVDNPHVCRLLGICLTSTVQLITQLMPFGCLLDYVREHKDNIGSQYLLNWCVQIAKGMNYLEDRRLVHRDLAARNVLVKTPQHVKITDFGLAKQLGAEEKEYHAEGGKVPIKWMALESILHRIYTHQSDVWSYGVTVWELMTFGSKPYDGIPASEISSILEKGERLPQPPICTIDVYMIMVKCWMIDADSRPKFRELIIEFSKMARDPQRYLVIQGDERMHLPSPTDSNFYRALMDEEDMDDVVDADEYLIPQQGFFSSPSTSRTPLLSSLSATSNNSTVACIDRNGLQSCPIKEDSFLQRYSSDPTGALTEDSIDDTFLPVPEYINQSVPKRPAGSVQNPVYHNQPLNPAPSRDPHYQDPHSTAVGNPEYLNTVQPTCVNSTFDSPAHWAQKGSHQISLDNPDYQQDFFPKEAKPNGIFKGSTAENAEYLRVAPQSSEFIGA

In the case of `Cc1ccc(C2=Nc3cccnc3S(=O)(=O)c3ccccc32)cc1` [TBPT, 6-(p-tolyl)benzo[f] pyrido[2,3-b][1,4] thiazepine 11,11-dioxide], the efflux ratio ([1]; Caco-2, Caco-2, read-out: Efflux ratio (B2A/A2B)) is reported as 0.4 to 0.8, the Papp ([1]; read-out: Caco-2 Papp A/B) is reported as 34.5 ± 2.06 ×10⁻⁶ cm/s and the Papp ([1]; read-out: Caco-2 Papp B/A) is reported as 20.6 ± 7 ×10⁻⁶ cm/s. For the same compound, the “Efflux ratio (B2A/A2B)” value (Caco-2) was 0.59±0.17, the half-life (plasma stability) was greater than 50 h and the IC50 (tubulin) was 12.6 µM. The “cells in an apoptotic/necrotic state” value (H460 [2]) was “approximately 50%”, the “activities of caspases 8, 9 and 3/7” value (caspases 8, 9 and 3/7) was “activated caspases 8, 9 and 3/7 in a time-dependent manner” and the mitochondrial membrane potential (H460TaxR) was “decreased significantly”. For the same compound, the mitochondrial membrane potential (H460 [3]) was “decreased significantly”, the remaining binding at 5 µM ([4]; 5 μM) was 89% and the remaining binding at 10 µM ([4]; 10 μM) was 100%. For the same compound, the remaining binding at 5 µM (EGFR(G719C); 5 μM) was 73%, the remaining binding at 10 µM (EGFR(G719C); 10 μM) was 100% and the remaining binding at 5 µM (EGFR(L858R); 5 μM) was 85%. The remaining binding at 10 µM (EGFR(L858R); 10 μM) was 100%, the remaining binding at 5 µM (EGFR(L861Q); 5 μM) was 100% and the remaining binding at 10 µM (EGFR(L861Q); 10 μM) was 100%. The remaining binding at 5 µM (EGFR(T790M); 5 μM) was 100%, the remaining binding at 10 µM (EGFR(T790M); 10 μM) was 96% and the remaining binding at 5 µM (FGFR3(G697C); 5 μM) was 100%. It also gave a remaining binding at 10 µM (FGFR3(G697C); 10 μM) of 82%, a remaining binding at 5 µM (FLT3(D835H); 5 μM) of 100% and a remaining binding at 10 µM (FLT3(D835H); 10 μM) of 97%. For the same compound, the remaining binding at 5 µM (KIT(V559D,V654A); 5 μM) was 97%, the remaining binding at 10 µM (KIT(V559D,V654A); 10 μM) was 90% and the remaining binding at 5 µM (LRRK2(G2019S); 5 μM) was 86%. For the same compound, the remaining binding at 10 µM (LRRK2(G2019S); 10 μM) was 99%, the remaining binding at 5 µM (MET(M1250T); 5 μM) was 100% and the remaining binding at 10 µM (MET(M1250T); 10 μM) was 77%. For the same compound, the “toxicity to normal tissues (blood biochemical and hematological analyses, body weight, relative organ weights)” value [5] was “did not exhibit evident toxicity to normal tissues”.
